“And” between values parts separate entries of the source, which are not always exact repeats. Equal values may be shown once.
What was measured:
Assay in all cases: Post-emergence application in field trials (Example A)
Type in all cases: in vivo
[1] = test system: AMAPA (Amaranthus palmeri); conditions: Table 1.27, AMAPA height 30 cm, 21 DAT, water 200 l/ha
Method: (§1) In the examples below, using the method of S. R. Colby (1967) “Calculating synergistic and antagonistic responses of herbicide combinations”, Weeds 15, p. 22ff., the value E, which is expected if the activity of the individual active compounds is only additive, was calculated:
(§2) [formula] • where • X=percent activity using active herbicide A at an application rate a; • Y=percent activity using active herbicide B (e.g. glufosinate) at an application rate b; • E=expected activity (in %) by A+B at application rates a+b.
(§3) If the value found experimentally is higher than the value E calculated according to Colby, a synergistic effect is present.
(§4) On field test sites, natural weed infestation or seeded weeds were treated post-emergence of the weeds.
(§5) In the field trials, the weeds were treated as indicated below.
(§6) In the following experiments, the herbicidal activity for the individual herbicidal compositions (solo and mixture applications) was assessed at the indicated days after treatment (DAT). The assessments for the damage on undesired weeds caused by the composition was carried out using a scale from 0 to 100%, compared to the untreated control plants. Here, 0 means no damage and 100 means complete destruction of the plants.

AVEFA (Avena fatua) = conditions: Table 3.1; AVEFA growth stage 22-24, height 18-29 cm; A-1 12.5, B-2 500 g ai/ha; 28 DAT; water 100 l/ha
Method: as §1, §2, §3, §4, §5, §6

AVESG (Avena strigosa) = conditions: Table 1.6; AVESG growth stage 11-21, height 5-10 cm; A-1 25, B-2 400 g ai/ha; 14 DAT; water 200 l/ha
Method: as §1, §2, §3, §4, §5, §6

BIDPI (Bidens pilosa) = conditions: Table 1.14; BIDPI height 20-45 cm; A-1 50, B-2 400 g ai/ha; 21 DAT; water 100 l/ha
Method: as §1, §2, §3, §4, §5, §6

[2] = test system: BRAPL (Brachiaria plantaginea); conditions: BRAPL growth stage 24, A-1 50, B-2 400 g ai/ha, water 200 l/ha
Method: as §1, §2, §3, §4, §5, §6

CNDSS (Conyza sp.) = conditions: Table 1.5; CNDSS growth stage 26-59, height 15-55 cm; A-1 50, B-2 600 g ai/ha; 14 DAT; water 200 l/ha
Method: as §1, §2, §3, §4, §5, §6

[3] = test system: CYPES (Cyperus esculentus); conditions: 21 DAT, water 140 l/ha
Method: as §1, §2, §3, §4, §5, §6

CYPIR (Cyperus iria) = conditions: Table 2.1, CYPIR growth stage 13-14, height 3-5 cm, 14 DAT, water 300 l/ha
Method: as §1, §2, §3, §4, §5, §6

[4] = test system: DIGSA (Digitaria sanguinalis); conditions: for % Herbicidal activity: B-2 400 g ai/ha, height 10-15 cm; for % herbicidal activity: Table 4.1, DIGSA height 2-8 cm, water 140 l/ha
Method: as §1, §2, §3, §4, §5, §6

[5] = test system: ECHCG (Echinocloa crus-galli); conditions: B-2 400 g ai/ha, growth stage 23-30, height 15-20 cm
Method: as §1, §2, §3, §4, §5, §6

GALAP (Galium aparine) = conditions: Table 3.1; GALAP growth stage 11-16, height 2-20 cm; A-1 18, B-2 500 g ai/ha; 28 DAT; water 100 l/ha
Method: as §1, §2, §3, §4, §5, §6

[6] = test system: HORVW (Hordeum vulgare (winter barley)); conditions: B-2 400 g ai/ha, growth stage 23-29, height 20-25 cm
Method: as §1, §2, §3, §4, §5, §6

IPOTR (Ipomoea triloba) = conditions: 21 DAT
Method: as §1, §2, §3, §4, §5, §6

[7] = test system: LOLMU (Lolium multiflorum)
Method: as §1, §2, §3, §4, §5, §6

ZEAMX (Zea mays) = test system: ZEAMX (Zea mays)
Method: as §1, §2, §3, §4, §5, §6

[8] = 7 DAT, B-2 400 g ai/ha, growth stage 22-25, height 20-25 cm

With `CP(=O)(O)CCC(N)C(=O)O` (stereo not drawn) [B-2, glufosinate-ammonium] the “% herbicidal activity” value ([1]; A-1 12.5, B-2 400 g ai/ha) was 20%, the “% herbicidal activity” value ([1]; A-1 25, B-2 400 g ai/ha) was 20% and the “% herbicidal activity” value (AVEFA (Avena fatua)) was 68%. For the same compound, the “% herbicidal activity” value (AVESG (Avena strigosa)) was 83%, the “% herbicidal activity” value (BIDPI (Bidens pilosa)) was 55% and the “% herbicidal activity” value ([2]; Table 1.18, 21 DAT) was 18%. For the same compound, the “% herbicidal activity” value ([2]; Table 1.4, 14 DAT) was 55%, the “% herbicidal activity” value (CNDSS (Conyza sp.)) was 90% and the “% herbicidal activity” value ([3]; Table 4.2, A-1 25, B-2 655 g ai/ha) was 18%. For the same compound, the “% herbicidal activity” value ([3]; Table 4.2, A-1 50, B-2 655 g ai/ha) was 18%, the “% herbicidal activity” value (CYPIR (Cyperus iria); A-1 12.5, B-2 500 g ai/ha) was 77% and the “% herbicidal activity” value (CYPIR (Cyperus iria); A-1 25, B-2 500 g ai/ha) was 77%. The “% Herbicidal activity” value ([4]; 20 DAT, growth stage 21-22) was 20%, the “% Herbicidal activity” value ([4]; 21 DAT, growth stage 22) was 75% and the “% Herbicidal activity” value ([4]; 41 DAT, growth stage 22) was 55%. The “% herbicidal activity” value ([4]; A-1 12.5, B-2 655 g ai/ha, 21 DAT) was 49%, the “% herbicidal activity” value ([4]; A-1 25, B-2 655 g ai/ha, 21 DAT) was 49% and the “% herbicidal activity” value ([4]; A-1 50, B-2 655 g ai/ha, 21 DAT) was 49%. The “% Herbicidal activity” value ([5]; 7 DAT) was 60%, the “% herbicidal activity” value ([5]; 7 DAT) was 40% and 60% and the “% Herbicidal activity” value ([5]; 21 DAT) was 60%. The “% herbicidal activity” value ([5]; 21 DAT) was 60%, the “% Herbicidal activity” value ([5]; 28 DAT) was 60% and the “% herbicidal activity” value (GALAP (Galium aparine)) was 27%. For the same compound, the “% Herbicidal activity” value ([6]; 7 DAT) was 60%, the “% Herbicidal activity” value ([6]; 21 DAT) was 30% and the “% herbicidal activity” value ([6]; 21 DAT) was 40%. For the same compound, the “% herbicidal activity” value (IPOTR (Ipomoea triloba); Table 1.11, A-1 25, B-2 400 g ai/ha, water 100 l/ha) was 60%, the “% herbicidal activity” value (IPOTR (Ipomoea triloba); Table 1.16, A-1 25, B-2 400 g ai/ha, water 200 l/ha) was 68% and the “% Herbicidal activity” value [7, 8] was 70%. For the same compound, the “% herbicidal activity” value [7, 8] was 50%, the “% herbicidal activity” value ([7]; 21 DAT, B-2 400 g ai/ha, growth stage 22-25, height 20-25 cm) was 30% and the “% Herbicidal activity” value ([7]; 28 DAT, B-2 400 g ai/ha, growth stage 22-25, height 20-25 cm) was 40%. The “% herbicidal activity” value ([7]; Table 1.28, LOLMU growth stage 11-23, height 5-10 cm, A-1 25, B-2 400 g ai/ha, 28 DAT, water 200 l/ha) was 68%, the “% herbicidal activity” value (ZEAMX (Zea mays); 7 DAT, B-2 400 g ai/ha, growth stage 15-16, height 50-60 cm) was 75% and the “% Herbicidal activity” value (ZEAMX (Zea mays); 21 DAT, B-2 400 g ai/ha, growth stage 15-16, height 27-33 cm) was 65%. The “% herbicidal activity” value (ZEAMX (Zea mays); 21 DAT, B-2 400 g ai/ha, growth stage 15-16, height 50-60 cm) was 75%, the “% herbicidal activity” value (ZEAMX (Zea mays); 28 DAT, B-2 400 g ai/ha, growth stage 15-16, height 50-60 cm) was 40% and the “% herbicidal activity” value (ZEAMX (Zea mays); Table 1.12, ZEAMX volunteer corn, A-1 50, B-2 400 g ai/ha, 21 DAT, water 100 l/ha) was 47%.

Source: patent US12532889B2, “Herbicidal compositions comprising glufosinate” (BASF SE, priority 2023, dated 2026)
